The nature of data set [1]: Cytotoxicity against african green monkey Vero 76 cells after 3 days by neutral red uptake assay. The data set is classed as cell-based. The note with it: chlorocebus sabaeus.
The test system of the next data set is Cowpox virus. In words: Antiviral activity against Cowpox virus infected in african green monkey Vero 76 cells assessed as inhibition of virus-induced cytopathic effect after 3 days by microscopic analysis. The note with it: 72 h. The data set is classed as functional, organism-based. In general terms: Protection from cytopathic effect is a common read-out in antiviral testing.

A further data set deals with Vaccinia virus. In words: Antiviral activity against Vaccinia virus infected in african green monkey Vero 76 cells assessed as inhibition of virus-induced cytopathic effect after 3 days by microscopic analysis. The data set is classed as functional, organism-based. The note with it: Orthopoxvirus vaccinia, 72 h.
In the next data set the test system is Feline coronavirus. In words: Antiviral activity against Feline coronavirus. The data set is classed as functional, organism-based.
Data set [2] relates to unidentified human coronavirus. Briefly: Antiviral activity against Human coronavirus. The data set is classed as functional.
Another data set deals with Coxsackievirus B4. Briefly: Antiviral activity against Human coxsackievirus B4. The data set is classed as functional, organism-based.
In the next data set the test system is Measles morbillivirus. In words: Antiviral activity against Measles virus. The data set is classed as functional, organism-based.
A further data set concerns unidentified adenovirus. In words: Antiviral activity against Adenovirus. The data set is classed as functional, organism-based.
The subject of the next data set is Sindbis virus. Briefly: Antiviral activity against Sindbis virus. The data set is classed as functional, organism-based.
A further data set concerns Human betaherpesvirus 5. Briefly: Antiviral activity against Human cytomegalovirus. The data set is classed as functional, organism-based.
The subject of a further data set is Reovirus sp. Briefly: Antiviral activity against Reovirus. The data set is classed as functional, organism-based.
A further data set relates to Human alphaherpesvirus 3. Briefly: Antiviral activity against Varicella zoster virus. The data set is classed as functional, organism-based.
In a further data set the test system is Human alphaherpesvirus 2. Briefly: Antiviral activity against Herpes simplex virus 2. The data set is classed as functional, organism-based.
A further data set deals with Human alphaherpesvirus 1. Briefly: Antiviral activity against Herpes simplex virus 1. The data set is classed as functional, organism-based.
Another data set concerns Enterovirus. Briefly: Antiviral activity against Rhinovirus. The data set is classed as functional, organism-based.
Data set [3] concerns Respiratory syncytial virus. Briefly: Antiviral activity against Respiratory syncytial virus. The data set is classed as functional, organism-based.
The test system of a further data set is Punta Toro virus. Briefly: Antiviral activity against Punta Toro virus. The data set is classed as functional, organism-based.
The test system of a further data set is Hepatitis C virus. In words: Antiviral activity against Hepatitis C virus. The data set is classed as functional, organism-based. The note with it: Hepacivirus hominis.
The test system of another data set is Pichinde virus. Briefly: Antiviral activity against Pichinde virus. The data set is classed as functional, organism-based.
The next data set has as its system Hepatitis B virus. Briefly: Antiviral activity against Hepatitis B virus. The data set is classed as functional, organism-based.
For a further data set, the system named is Dengue virus. Briefly: Antiviral activity against Dengue virus. The data set is classed as functional, organism-based.
The next data set concerns Yellow fever virus. Briefly: Antiviral activity against Yellow fever virus. The data set is classed as functional, organism-based.
The test system of the next data set is West Nile virus. Briefly: Antiviral activity against West Nile virus. The data set is classed as functional, organism-based.
The test system of data set [4] is Venezuelan equine encephalitis virus. Briefly: Antiviral activity against Venezuelan equine encephalitis virus. The data set is classed as functional, organism-based.
A further data set has as its system Human respirovirus 3. Briefly: Antiviral activity against Human parainfluenza virus 3. The data set is classed as functional, organism-based.
The subject of a further data set is Influenza B virus. Briefly: Antiviral activity against Influenza B virus. The data set is classed as functional, organism-based.
Data set [5] concerns Influenza A virus. In words: Antiviral activity against Influenza A virus H3N2. The data set is classed as functional, organism-based.
Data set [6] has as its system Influenza A virus. Briefly: Antiviral activity against Influenza A virus H1N1. The data set is classed as functional, organism-based.
Data set [7] is described as follows: Cytotoxicity against human HEL cells after 3 days by neutral red uptake assay. The data set is classed as cell-based.
The nature of data set [8]: Cytotoxicity against human Daudi cells after 3 days by neutral red uptake assay. The data set is classed as cell-based.
Data set [9] concerns Vesicular stomatitis virus. Briefly: Antiviral activity against Vesicular stomatitis virus infected in human HEL cells assessed as inhibition of virus-induced cytopathic effect after 3 days by microscopic analysis. The data set is classed as functional, organism-based. The note with it: 72 h.
A further data set relates to Human gammaherpesvirus 4. In words: Antiviral activity against Epstein Barr virus infected in human Daudi cells assessed as inhibition of virus-induced cytopathic effect after 3 days by microscopic analysis. The data set is classed as functional, organism-based. Conditions: human gammaherpesvirus 4, Daudi, 72 h.

Active and inactive are the calls of the source. The rule behind the calls is not given here. Where only a bound is given, the exact number is not on record here.

Consider `Nc1ncnc2c1ncn2[C@@H]1C[C@H](CCO)[C@@H](O)[C@H]1O`, for which the CC50 (usually the concentration that lowers cell viability or growth by half) at 72 h in data set [1] is over 300 µM. Moreover, the IC50 – broadly, the midpoint of a concentration-inhibition curve – with Cowpox virus stood at 0.49 µM; with Vaccinia virus, 4.29 µM.
Consider `C[C@@H](O)C[C@H]1C[C@@H](n2cnc3c(N)ncnc32)[C@H](O)[C@@H]1O` (mixture of isomers), for which the outcome (in the data set with Feline coronavirus; in data set [2]; in the data set with Coxsackievirus B4; with Measles morbillivirus; with unidentified adenovirus; in the data set with Sindbis virus) was inactive. Besides, the result in the data set on Human betaherpesvirus 5, with Reovirus sp., in the data set on Human alphaherpesvirus 3, in the data set with Human alphaherpesvirus 2, in the data set on Human alphaherpesvirus 1 and in the data set on Enterovirus was inactive. For the same compound, the outcome (in [3]; with Punta Toro virus; in the data set on Hepatitis C virus; in the data set with Pichinde virus; in the data set on Hepatitis B virus; with Dengue virus) was inactive. Besides, the result (in the data set with Yellow fever virus; in the data set with West Nile virus; in [4]; in the data set with Human respirovirus 3; in the data set on Influenza B virus; with Influenza A virus [5]) was inactive. Moreover, in the data set with Influenza A virus [6], the outcome was inactive. For the same compound, the CC50 at 72 h in [7], in data set [8] and in [1] was over 300 µM in each case. Besides, the IC50 in data set [9] came to 4.8 µM; in the data set with Human gammaherpesvirus 4 it was 6.6 µM; in the data set with Cowpox virus it was 223 µM; with Vaccinia virus, 24 µM.
On to `C[C@H](O)C[C@H]1C[C@@H](n2cnc3c(N)ncnc32)[C@H](O)[C@@H]1O` (mixture of isomers), for which the outcome (in the data set on Feline coronavirus; in [2]; with Coxsackievirus B4; with Measles morbillivirus; in the data set on unidentified adenovirus; in the data set on Sindbis virus) was inactive. In addition, the result in the data set on Human betaherpesvirus 5, in the data set with Reovirus sp., in the data set with Human alphaherpesvirus 3, in the data set with Human alphaherpesvirus 2, with Human alphaherpesvirus 1 and with Enterovirus was inactive. Besides, the result (in [3]; in the data set with Punta Toro virus; in the data set with Hepatitis C virus; in the data set on Pichinde virus; in the data set with Hepatitis B virus; with Dengue virus) was inactive. The outcome (with Yellow fever virus; in the data set on West Nile virus; in [4]; in the data set with Human respirovirus 3; in the data set with Influenza B virus; in the data set with Influenza A virus [5]) was inactive. For the same compound, the result in the data set with Influenza A virus [6] was inactive. Moreover, the half-maximal cytotoxic concentration (CC50) at 72 h in data set [7], in [8] and in data set [1] was over 300 µM in each case. Further, the IC50 in data set [9] was found to be 1.6 µM; in the data set on Human gammaherpesvirus 4 it was 6.4 µM; with Cowpox virus, 164 µM; in the data set on Vaccinia virus, 4.8 µM.

The record behind these values is ChEMBL document CHEMBL2396569, “6'-Methyl-5'-homoaristeromycin: a structural variation of the anti-orthopox virus candidate 5'-homoaristeromycin” (Bioorg Med Chem, 2013).
